The target in data set [1] is mouse TREK-1 (Mus musculus, UniProt P97438). The experiment in a line: mouse TREK-1 thallium flux. In kind it is cell-based. Particulars: read-out: TREK-1 IC50 (mouse, Tl+).
The test system of data set [2] is MK-801 challenged rat. In words: MK-801 challenge novel object recognition (NOR), rat. In kind it is in vivo. As to conditions: for Minimum effective dose (MED), MK-801 challenge NOR: PO, MK-801 0.2 mg/kg IP; for reversal of the MK-801 deficit in NOR: oral, 10 at 1, 3 mg/kg, 11 at 0.3, 1 mg/kg.
The target of data set [3] is DAT (Homo sapiens, UniProt Q01959). In words: Functional assay, DAT. The class given is biochemical.
In data set [4] the target is TASK-3 (Homo sapiens, UniProt Q9NPC2). The experiment in a line: K2P family selectivity, TASK-3. In kind it is cell-based.
Chain of TASK-3 (Q9NPC2 whole entry, species assumed): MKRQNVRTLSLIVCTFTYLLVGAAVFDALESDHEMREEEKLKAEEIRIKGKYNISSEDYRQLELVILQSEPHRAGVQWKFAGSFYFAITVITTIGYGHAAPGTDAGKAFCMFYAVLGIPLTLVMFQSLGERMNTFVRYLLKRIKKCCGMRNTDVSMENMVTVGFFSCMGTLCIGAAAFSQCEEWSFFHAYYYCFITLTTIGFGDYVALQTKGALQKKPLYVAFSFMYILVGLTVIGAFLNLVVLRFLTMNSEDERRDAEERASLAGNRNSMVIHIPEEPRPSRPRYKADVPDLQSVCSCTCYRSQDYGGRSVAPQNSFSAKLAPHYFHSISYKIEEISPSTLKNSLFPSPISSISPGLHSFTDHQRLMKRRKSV
Data set [5] can be described thus: in vivo. Particulars: rat, po.
Data set [6] deals with T1, dopamine transporter DAT (Homo sapiens, UniProt Q01959).
T1 construct: purchased Eurofins
T1 sequence (Q01959 whole entry): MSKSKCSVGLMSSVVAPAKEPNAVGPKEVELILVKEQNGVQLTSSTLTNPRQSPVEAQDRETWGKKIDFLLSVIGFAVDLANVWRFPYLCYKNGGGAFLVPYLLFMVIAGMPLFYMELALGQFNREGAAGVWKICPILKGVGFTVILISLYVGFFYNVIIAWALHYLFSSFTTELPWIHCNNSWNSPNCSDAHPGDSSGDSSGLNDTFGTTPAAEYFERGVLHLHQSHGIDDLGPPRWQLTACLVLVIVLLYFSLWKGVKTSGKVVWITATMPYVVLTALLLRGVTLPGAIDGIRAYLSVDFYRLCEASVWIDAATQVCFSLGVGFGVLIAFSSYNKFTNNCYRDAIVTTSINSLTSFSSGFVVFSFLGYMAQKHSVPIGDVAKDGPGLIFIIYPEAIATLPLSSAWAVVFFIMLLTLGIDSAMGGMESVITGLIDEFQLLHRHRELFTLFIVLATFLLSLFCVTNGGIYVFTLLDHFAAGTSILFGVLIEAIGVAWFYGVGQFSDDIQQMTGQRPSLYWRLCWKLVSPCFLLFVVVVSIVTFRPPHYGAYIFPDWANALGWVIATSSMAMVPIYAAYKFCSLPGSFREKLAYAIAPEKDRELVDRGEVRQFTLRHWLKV
In words: Radioligand binding, dopamine transporter.

The target in data set [7] is HCN4 (Homo sapiens, UniProt Q9Y3Q4). The experiment in a line: MPC ion channel panel, HCN4. The class given is cell-based.
Data set [8] has as its target Nav1.5 (Homo sapiens, UniProt Q14524). In words: MPC ion channel panel, Nav1.5. The class given is cell-based.
Data set [9] can be described thus: Embryo fetal developmental toxicity in vivo.
Data set [10] addresses TASK-1 (Homo sapiens, UniProt O14649). The experiment in a line: K2P family selectivity, TASK-1. In kind it is cell-based.
The target in data set [11] is Kv1.5 (Homo sapiens, UniProt P22460). In words: MPC ion channel panel, Kv1.5. In kind it is cell-based.
Chain of Kv1.5 (P22460 whole entry): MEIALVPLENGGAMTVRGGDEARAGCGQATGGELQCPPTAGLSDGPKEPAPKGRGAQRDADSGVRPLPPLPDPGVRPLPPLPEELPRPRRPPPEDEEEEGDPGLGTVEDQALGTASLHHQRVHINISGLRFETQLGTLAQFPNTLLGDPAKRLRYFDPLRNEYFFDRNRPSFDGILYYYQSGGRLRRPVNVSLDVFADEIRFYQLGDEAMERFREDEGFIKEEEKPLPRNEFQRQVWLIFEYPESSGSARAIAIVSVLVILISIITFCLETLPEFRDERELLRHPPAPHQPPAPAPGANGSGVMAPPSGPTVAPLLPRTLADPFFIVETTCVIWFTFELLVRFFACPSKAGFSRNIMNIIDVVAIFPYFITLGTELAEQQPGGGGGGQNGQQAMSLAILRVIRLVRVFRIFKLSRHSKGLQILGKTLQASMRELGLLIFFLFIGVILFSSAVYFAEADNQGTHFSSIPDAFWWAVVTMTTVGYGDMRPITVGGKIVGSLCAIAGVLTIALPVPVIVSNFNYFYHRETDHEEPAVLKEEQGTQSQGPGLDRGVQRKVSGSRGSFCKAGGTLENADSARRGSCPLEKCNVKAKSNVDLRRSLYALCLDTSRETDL
The target of data set [12] is CYP 1A2 (Homo sapiens, UniProt P05177). The experiment in a line: CYP450 inhibition 1A2. The class given is in vitro ADME.
Chain of CYP 1A2 (P05177 whole entry): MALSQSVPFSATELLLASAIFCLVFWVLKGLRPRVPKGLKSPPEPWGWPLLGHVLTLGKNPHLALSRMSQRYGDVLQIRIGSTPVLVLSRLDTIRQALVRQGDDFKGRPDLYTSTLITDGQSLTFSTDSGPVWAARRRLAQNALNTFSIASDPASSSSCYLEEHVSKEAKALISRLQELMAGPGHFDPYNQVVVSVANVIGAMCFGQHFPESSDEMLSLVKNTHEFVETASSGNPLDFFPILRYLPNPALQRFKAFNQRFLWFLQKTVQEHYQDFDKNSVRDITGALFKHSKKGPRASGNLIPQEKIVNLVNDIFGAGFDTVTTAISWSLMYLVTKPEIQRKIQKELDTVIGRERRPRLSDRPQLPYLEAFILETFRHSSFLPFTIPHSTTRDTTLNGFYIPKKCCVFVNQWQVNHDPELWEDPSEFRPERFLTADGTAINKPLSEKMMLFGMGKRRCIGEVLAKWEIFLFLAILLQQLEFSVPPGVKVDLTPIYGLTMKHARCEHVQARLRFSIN
Data set [13] in a line: CACO-2 efflux ratio. In kind it is in vitro ADME. Particulars: human, pH 7.4, efflux ratio, read-out: CACO-2 (ER).
Data set [14] deals with TRESK (Homo sapiens, UniProt Q7Z418). The experiment in a line: K2P family selectivity, TRESK. The class given is cell-based.
Data set [15] concerns the target CYP 3A4 (Homo sapiens, UniProt P08684). The experiment in a line: CYP450 inhibition 3A4. In kind it is in vitro ADME.
Data set [16] addresses TRAAK (Homo sapiens, UniProt Q9NYG8). The experiment in a line: K2P family selectivity, TRAAK. In kind it is cell-based.
In data set [17] the test system is MK-801 challenged mouse. In words: MK-801 challenge novel object recognition (NOR), mouse. The class given is in vivo. Particulars: dosed orally, data not shown. As to the method:
Brain plasma concentration ratio (Kp) was calculated by dividing brain concentration by plasma concentration for each animal. Unbound brain to unbound plasma concentration ratio (Kp,uu) is calculated using the following formula: Kp,uu = (Brain ng/g x brain fu)/(plasma ng/ml x plasma fu).
In-vitro determination of blood-brain barrier penetration potential
Blood-brain barrier penetration was determined using MDR1-MDCK cell monolayers by Absorption Systems, following their protocol. In short, compounds were incubated at […] final concentration on one side of the cell monolayer for 2 hours. Compounds concentration on either side of the monolayer was determined by LC-MS/MS and apparent permeability and efflux ratio were determined as described in Wang, Q. et al.1
MK-801 induced novel object recognition test […]
Behavioral analysis: An observer blinds to treatment condition and novel object location used the video recordings to score the interaction of the animal with the two objects offline. The duration an animal explored each object was determined as the total time an animal is facing the object with its nose being ≦ 2 cm away from the object and some discernible whisker movement […]
Data Analysis: Statistical analyses can be performed using EXSUS ver 8.1 (CAC Croit Corporation). The vehicle and compound-treated groups were analyzed by one-way ANOVA followed by Dunnett's test. […]

The target in data set [18] is TASK-2 (Homo sapiens, UniProt O95279). In words: K2P family selectivity, TASK-2. In kind it is cell-based.
Data set [19] deals with THIK-1 (Homo sapiens, UniProt Q9HB14). The experiment in a line: K2P family selectivity, THIK-1. The class given is cell-based.
The target in data set [20] is KCNQ1/E1 (Homo sapiens, UniProt P51787). In words: MPC ion channel panel, KCNQ1/E1. The class given is cell-based.
The target of data set [21] is sodium channel site 2. In words: Radioligand binding, sodium channel site 2.
Setting [22] is: radioligand binding displacement, 10 μM.

Read-outs that look alike come from different tables or passages of the source.

Chain of CYP 3A4 (P08684 whole entry): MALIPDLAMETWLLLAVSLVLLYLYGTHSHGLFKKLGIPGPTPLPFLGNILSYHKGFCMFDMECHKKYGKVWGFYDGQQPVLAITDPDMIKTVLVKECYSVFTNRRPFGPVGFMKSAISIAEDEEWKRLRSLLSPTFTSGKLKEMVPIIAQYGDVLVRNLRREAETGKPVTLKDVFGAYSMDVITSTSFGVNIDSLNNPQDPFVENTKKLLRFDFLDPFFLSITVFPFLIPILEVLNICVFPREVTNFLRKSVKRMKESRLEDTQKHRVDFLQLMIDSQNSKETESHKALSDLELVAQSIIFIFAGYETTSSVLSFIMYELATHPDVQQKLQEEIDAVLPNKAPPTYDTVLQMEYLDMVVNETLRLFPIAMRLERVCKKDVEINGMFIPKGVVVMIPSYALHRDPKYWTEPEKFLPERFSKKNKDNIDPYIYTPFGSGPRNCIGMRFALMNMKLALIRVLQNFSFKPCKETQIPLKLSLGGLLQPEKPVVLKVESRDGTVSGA
Chain of Nav1.5 (Q14524 whole entry): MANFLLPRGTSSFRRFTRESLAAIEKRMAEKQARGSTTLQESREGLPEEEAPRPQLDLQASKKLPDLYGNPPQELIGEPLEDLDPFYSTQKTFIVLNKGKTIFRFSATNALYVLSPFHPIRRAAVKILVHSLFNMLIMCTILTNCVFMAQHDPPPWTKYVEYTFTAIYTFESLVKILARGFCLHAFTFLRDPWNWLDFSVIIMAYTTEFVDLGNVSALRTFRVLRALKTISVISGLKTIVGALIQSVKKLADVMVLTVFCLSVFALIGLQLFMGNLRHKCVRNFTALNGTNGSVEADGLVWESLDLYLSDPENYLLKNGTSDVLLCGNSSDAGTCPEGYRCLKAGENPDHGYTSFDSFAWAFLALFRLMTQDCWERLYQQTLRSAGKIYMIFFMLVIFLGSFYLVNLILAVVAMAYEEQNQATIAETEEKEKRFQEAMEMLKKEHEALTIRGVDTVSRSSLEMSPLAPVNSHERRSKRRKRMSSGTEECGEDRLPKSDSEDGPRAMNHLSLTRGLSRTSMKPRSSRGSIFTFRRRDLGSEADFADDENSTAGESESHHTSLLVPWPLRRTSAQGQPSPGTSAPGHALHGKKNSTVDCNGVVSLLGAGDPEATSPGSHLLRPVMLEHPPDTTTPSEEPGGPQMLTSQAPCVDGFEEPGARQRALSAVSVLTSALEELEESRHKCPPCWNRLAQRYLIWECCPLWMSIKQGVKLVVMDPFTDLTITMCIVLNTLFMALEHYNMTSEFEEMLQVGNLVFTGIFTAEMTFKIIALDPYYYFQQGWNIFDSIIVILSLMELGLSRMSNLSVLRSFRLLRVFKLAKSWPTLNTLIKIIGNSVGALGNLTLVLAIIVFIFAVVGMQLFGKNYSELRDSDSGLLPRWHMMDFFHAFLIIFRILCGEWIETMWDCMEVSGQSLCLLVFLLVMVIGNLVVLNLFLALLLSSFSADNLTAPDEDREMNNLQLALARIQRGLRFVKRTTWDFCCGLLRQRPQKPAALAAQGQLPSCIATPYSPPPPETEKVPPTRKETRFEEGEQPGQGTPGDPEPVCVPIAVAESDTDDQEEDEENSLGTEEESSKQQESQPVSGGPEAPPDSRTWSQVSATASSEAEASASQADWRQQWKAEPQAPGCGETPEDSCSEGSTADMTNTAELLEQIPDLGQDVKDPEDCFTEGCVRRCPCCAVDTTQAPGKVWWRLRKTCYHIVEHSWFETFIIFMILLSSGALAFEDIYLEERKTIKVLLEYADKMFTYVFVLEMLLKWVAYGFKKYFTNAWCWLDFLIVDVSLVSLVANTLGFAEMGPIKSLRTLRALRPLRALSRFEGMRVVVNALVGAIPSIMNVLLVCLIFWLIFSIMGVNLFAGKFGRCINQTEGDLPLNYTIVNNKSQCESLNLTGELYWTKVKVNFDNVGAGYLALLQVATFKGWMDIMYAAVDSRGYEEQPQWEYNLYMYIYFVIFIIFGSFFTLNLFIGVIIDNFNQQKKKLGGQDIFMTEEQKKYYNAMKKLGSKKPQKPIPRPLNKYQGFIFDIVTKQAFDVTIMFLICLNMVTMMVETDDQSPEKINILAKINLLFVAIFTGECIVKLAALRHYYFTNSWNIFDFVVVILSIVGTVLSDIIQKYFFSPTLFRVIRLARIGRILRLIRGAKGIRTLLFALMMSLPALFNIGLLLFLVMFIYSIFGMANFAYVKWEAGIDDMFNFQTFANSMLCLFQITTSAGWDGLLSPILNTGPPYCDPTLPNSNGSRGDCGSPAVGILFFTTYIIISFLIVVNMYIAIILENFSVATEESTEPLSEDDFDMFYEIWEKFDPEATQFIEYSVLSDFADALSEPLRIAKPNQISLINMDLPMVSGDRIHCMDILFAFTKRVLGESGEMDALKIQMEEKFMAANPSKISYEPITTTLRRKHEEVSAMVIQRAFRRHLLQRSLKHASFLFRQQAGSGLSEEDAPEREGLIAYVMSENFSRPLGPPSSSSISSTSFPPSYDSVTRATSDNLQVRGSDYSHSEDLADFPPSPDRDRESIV
Chain of mouse TREK-1 (P97438 whole entry): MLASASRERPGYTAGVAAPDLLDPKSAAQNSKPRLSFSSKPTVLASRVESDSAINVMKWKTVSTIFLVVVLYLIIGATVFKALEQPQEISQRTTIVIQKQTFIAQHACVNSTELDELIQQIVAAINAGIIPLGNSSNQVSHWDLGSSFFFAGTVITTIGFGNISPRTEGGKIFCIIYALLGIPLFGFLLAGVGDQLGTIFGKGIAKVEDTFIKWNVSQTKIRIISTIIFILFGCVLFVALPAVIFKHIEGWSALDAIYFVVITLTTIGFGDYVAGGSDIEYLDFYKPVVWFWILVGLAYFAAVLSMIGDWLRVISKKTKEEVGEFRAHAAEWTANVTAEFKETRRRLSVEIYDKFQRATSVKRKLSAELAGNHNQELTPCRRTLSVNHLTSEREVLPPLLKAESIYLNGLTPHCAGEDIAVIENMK

`CC(=O)N1CCC(n2ncc(Cl)c2C(=O)Nc2ncc(C#Cc3ccccc3)cc2C)CC1` [Compound 10, 1-(1-Acetylpiperidin-4-yl)-4-chloro-N-(3-methyl-5-(phenylethynyl)pyridin-2-yl)-1H-pyrazole-5-carboxamide]: the 50% inhibitory concentration (IC50) (in general, the point on the concentration scale where inhibition reaches its midpoint) in data set [1] was determined as 0.23 µM; in data set [3], 1.21 µM; in data set [6] (follow-up binding), 2.86 µM; in [12], 23.6 µM; in data set [15] it was 10.8 µM. The “Minimum effective dose (MED), MK-801 challenge NOR” value in data set [2] is on record as 1 mg/kg. Besides, in data set [2], the “reversal of the MK-801 deficit in NOR” value is reported as “significantly reversed the MK-801 deficit”. In addition, the inhibition (in general, how much of the control response was suppressed) at 10 µM is 78% in data set [4]; 78% in data set [6] (setting [22]); no more than 50% in data set [7]; no more than 50% in [8]; no more than 50% in data set [11]; 84% in data set [16]. In [20], the inhibition at 10 µM was no more than 50%. Besides, in [5], the no observed adverse effect level (NOAEL) (in general, the highest dose or exposure tested at which no adverse effect was seen) at 4 days is 10 mg/kg. Further, the entries for the “embryo fetal developmental toxicity” value in data set [9] and in data set [9] (listed as ONO-9517601) were “positive” and “positive signal”, respectively. Besides, the TASK-1 inhibition entry in data set [10] is given as “nothing significant”. The efflux ratio in [13] is 0.7. The TRESK inhibition result in data set [14] was “nothing significant”. Besides, the “MED in the NOR cognition assay, MK-801 challenged mouse” value in data set [17] amounted to 1 mg/kg. The TASK-2 inhibition entry in data set [18] is “nothing significant”. Moreover, the THIK-1 inhibition entry in [19] was “nothing significant”.

With `CC(=O)N1CC[C@@H](n2ncc(Cl)c2C(=O)Nc2ncc(C#Cc3ccc(F)cc3)cc2C)[C@H](F)C1` [Compound 11, 1-((3R,4R)-1-Acetyl-3-fluoropiperidin-4-yl)-4-chloro-N-(5-((4-fluorophenyl)ethynyl)-3-methylpyridin-2-yl)-1H-pyrazole-5-carboxamide], the half-maximal inhibitory concentration (IC50) in data set [1] is 0.44 µM; in data set [21] (follow-up binding) it was 9.13 µM; in data set [12], greater than 30 µM; in data set [15], 10.5 µM. In addition, the “Minimum effective dose (MED), MK-801 challenge NOR” value in data set [2] is 0.3 mg/kg. Moreover, the “reversal of the MK-801 deficit in NOR” value in data set [2] was “significantly reversed the MK-801 deficit”. The compound also returned an NOAEL at 4 days in [5] of 6 mg/kg. Also, the inhibition at 10 µM was no more than 50% in data set [7], no more than 50% in [8], no more than 50% in data set [11] and 60% in data set [20]. The “embryo fetal developmental toxicity” value in data set [9] is recorded as “positive”; in data set [9] (listed as ONO-7927846), “positive signal”. Besides, the “sodium channel site 2 inhibition at 10 μM” value in data set [21] (setting [22]) turned out to be 56%. Moreover, in data set [13], the efflux ratio came out at 0.91. In addition, in [17], the “MED in the NOR cognition assay, MK-801 challenged mouse” value is recorded as 3 mg/kg.

The record behind these values is paper PMC12621189, “Optimization of Selective and CNS Penetrant Alkyne-Based TREK Inhibitors: The Discovery and Characterization of ONO-9517601 (VU6022856) and ONO-7927846 (VU6024391)” (Journal of Medicinal Chemistry, 2025).
